Measurements taken from patent US8952060B2, “Composition for preventing hair loss or for stimulating hair growth” (Amorepacific Corporation, priority 2009, dated 2015).

What was measured:
Format in all cases: in vivo
[1] = test system: hair growth at depilated back portions of mice (C57BL/6); assay: Hair growth after subcutaneous injection in depilated mice; conditions: 3% solution, subcutaneous injection 50 μL every 3-4 days, seven times
Procedure: According to one embodiment, sodium valproate (VPA) is administered to subjects via subcutaneous injection and then tested for its effect for promoting hair growth. Seven week aged female mice (C57BL/6) are subjected to depilation at their back portions. Next, 3% sodium valproate solution is administered via subcutaneous injection to the left side of each depilated back portion in a unit dose of 50 μL at an interval of 3-4 days seven times in total. Then, the degree of hair growth is observed 1, 16 and 30 days after starting the test. In the test of FIG. 1, sodium valproate is injected subcutaneously to the left portion (marked by a circle) of the back of each mouse.

[2] = test system: hair growth at depilated back portions of mice (C57BL/6); assay: Hair growth and hair weight after oral administration in depilated mice; conditions: for hair growth as compared to the control (FIG. 2): 0.2 g/kg everyday for 5 weeks
Procedure: According to one embodiment, sodium valproate is administered orally to subjects and then tested for its effect for promoting hair growth. Seven week aged female mice (C57BL/6) are subjected to depilation at their back portions. Next, valproic acid is administered orally to mice of each test group everyday for 5 weeks. The control (mixed solution of distilled water, 1% methyl cellulose and 0.5% Tween 80™) and sodium valproate each are administered in a unit dose of 0.2 g/kg. After the administration, hair growth is observed at an interval of one week. After 5 weeks, hair weight after the depilation is measured.

[3] = test system: hair growth at depilated back portions of mice (C57BL/6); assay: Hair growth and hair weight after skin application in depilated mice
Procedure: According to one embodiment, sodium valproate is administered to subjects via external application to the skin and then tested for its effect for promoting hair growth. Seven week aged female mice (C57BL/6) are subjected to depilation at their back portions. Next, 7.2% sodium valproate is applied to the depilated back portions of mice of each test group twice per day. As a control, a mixed solution of propylene glycol/ethanol/water (5:3:2) is used. After the skin application, hair growth is observed at an interval of one week. After 6 weeks, hair weight after the depilation is measured.

Row | SMILES | degree of hair growth as compared to the control (FIG. 1) ([1]; after 16 days, control = right side of back) | formation of new hair follicles (FIG. 1) ([1]; after 30 days) | hair growth as compared to the control (FIG. 2) [2] | hair weight (FIG. 3) ([2]; 0.2 g/kg everyday, after 5 weeks, control about 85 mg) | hair growth as compared to the control (FIG. 4) ([3]; 7.2% skin application twice per day) | hair weight (FIG. 5) ([3]; 7.2% skin application twice per day, after 6 weeks, control about 35 mg) | hair growth, summary statement ([3]; transdermal administration (subcutaneous injection or skin application))
1 | CCCC(CCC)C(=O)[O-].[Na+] [sodium valproate] | hair growth is promoted | new hair follicles are formed | delays hair growth | 65 mg | promotes hair growth | ≥ 80 mg | –
2 | CCCC(CCC)C(=O)O [valproic acid, 2-propylpentanoic acid] | – | – | inhibits hair growth | – | – | – | promotes hair growth
